From PMC3747428, “Asymmetry of the Active Site Loop Conformation between Subunits of Glutamate-1-semialdehyde Aminomutase in Solution” (BioMed Research International, 2013)

Experiments:
[1] = molecular target: T1, Glutamate-1-semialdehyde aminomutase (GSAM) from Synechococcus (Synechococcus elongatus, UniProt P24630); experiment: half-transamination converting native enzyme into PLP form, followed by gel filtration and absorbance; format: biochemical; conditions: substrate analogue, 20 mM; 100 mM Na-Tricine pH 7.9
T1 construct: gene hemL; homodimer; mobile loop residues 153-181; Trp53 and Trp67
T1 sequence (P24630 2-433): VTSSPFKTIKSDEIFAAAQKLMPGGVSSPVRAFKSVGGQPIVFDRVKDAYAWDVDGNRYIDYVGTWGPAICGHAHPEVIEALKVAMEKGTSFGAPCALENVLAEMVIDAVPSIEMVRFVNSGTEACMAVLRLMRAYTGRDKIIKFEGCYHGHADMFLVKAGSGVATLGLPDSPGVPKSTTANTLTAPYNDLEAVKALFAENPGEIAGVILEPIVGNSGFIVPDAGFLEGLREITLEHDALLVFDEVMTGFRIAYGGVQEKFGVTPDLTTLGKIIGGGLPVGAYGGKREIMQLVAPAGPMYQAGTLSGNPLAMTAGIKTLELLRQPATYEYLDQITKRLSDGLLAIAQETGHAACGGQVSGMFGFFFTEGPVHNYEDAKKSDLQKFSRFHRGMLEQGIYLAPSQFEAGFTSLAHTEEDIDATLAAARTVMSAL

[2] = molecular target: T1, Glutamate-1-semialdehyde aminomutase (GSAM) from Synechococcus; experiment: half-transamination converting native enzyme into PMP form, followed by gel filtration and absorbance; format: biochemical; conditions: reaction intermediate, racemic, 5 mM; 100 mM Na-Tricine pH 7.9

Structure (SMILES) | half-transamination converting native enzyme into PLP form, followed by gel filt [1] | half-transamination converting native enzyme into PMP form, followed by gel filt [2]
O=CCCC(=O)O [succinic semialdehyde] | PLP-GSAM), obtained by treating the native enzyme with succinic-1-semialdehyde | 
NCC(N)CCC(=O)O (racemic) [DAVA, 4,5-diaminovalerate] |  | the PMP form (PMP-GSAM), obtained by the addition of DAVA
